The values below come from PubChem BioAssay (NCI).

Several values for one entry are separate records, joined by “and”; a condition that tells them apart may be missing. Equal values may be shown once.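 1) Cells in 96-well plates. 2) Compound, 48 h, 5 concentrations. 3) Linear interpolation between surrounding doses. 4) Unreached endpoint = highest concentration. GI50: concentration for 50% inhibition of growth. The concentration for full growth arrest is given as TGI.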

Some test systems named below: EKVX NSCLC; RPMI-8226 leukemia; 786-0 renal; CCRF-CEM leukemia; SK-MEL-5 melanoma; NCI-H460 lung; IGROV1 ovarian; OVCAR-3 ovarian; NCI-H23 lung.
Holding throughout (assay): NCI tumour cell line growth inhibition, 48 h

As for `C[C@H]1CC[P+](Cc2ccccc2)(c2ccccc2)C1` (some centres not stated), the TGI in the assay with EKVX NSCLC was greater than 100 µM; with RPMI-8226 leukemia, greater than 100 µM; in the assay with 786-0 renal, greater than 100 µM; in the assay on CCRF-CEM leukemia, greater than 100 µM; in the assay on SK-MEL-5 melanoma, 89.9 µM; with NCI-H460 lung, greater than 100 µM. Further, the TGI in the assay on IGROV1 ovarian, in the assay on OVCAR-3 ovarian and with NCI-H23 lung was greater than 100 µM in each case.
With `COc1ccccc1NC(=O)C1=C(C)NC(C)=C(C(=O)Nc2ccccc2OC)C1c1ccccc1[N+](=O)[O-]`, the TGI in the assay on EKVX NSCLC is greater than 100 µM; in the assay with RPMI-8226 leukemia, 65.6 µM; in the assay with 786-0 renal it was 35.5 µM; in the assay on CCRF-CEM leukemia, 48.9 µM; in the assay on SK-MEL-5 melanoma, 74.3 µM; in the assay on NCI-H460 lung it was 32.8 µM. Besides, the figures for the TGI in the assay on IGROV1 ovarian, in the assay with OVCAR-3 ovarian and in the assay on NCI-H23 lung were 45 µM, 39.1 µM and 43.6 µM, respectively.
For the molecule `Cc1ccc(NC(=O)CCCC(=O)CC(=O)c2ccc(Br)cc2)cc1`, the TGI in the assay on EKVX NSCLC, in the assay on RPMI-8226 leukemia, in the assay on 786-0 renal, in the assay on CCRF-CEM leukemia, with SK-MEL-5 melanoma and with NCI-H460 lung was greater than 100 µM throughout. Further, the TGI in the assay on IGROV1 ovarian, in the assay with OVCAR-3 ovarian and in the assay with NCI-H23 lung was greater than 100 µM each time.
Consider `O=C(c1ccc(O)cc1O)C1C(c2ccc(O)cc2)OC(c2ccc(O)cc2)C1C(=O)c1ccc(O)cc1O` (configuration not stated), for which the TGI with EKVX NSCLC was 60 µM; in the assay on 786-0 renal, 23.2 µM; in the assay with SK-MEL-5 melanoma, 29.6 µM; in the assay on NCI-H460 lung, greater than 100 µM; with OVCAR-3 ovarian, 40 µM; in the assay on NCI-H23 lung, 74.2 µM.
In the case of `Cc1ccc(NC(=O)CCc2nc(=S)[nH][nH]2)cc1`, the TGI in the assay on EKVX NSCLC, in the assay on RPMI-8226 leukemia, with 786-0 renal, in the assay on CCRF-CEM leukemia, in the assay with SK-MEL-5 melanoma and in the assay with NCI-H460 lung was greater than 100 µM in each case. The TGI in the assay with IGROV1 ovarian, in the assay on OVCAR-3 ovarian and in the assay on NCI-H23 lung was greater than 100 µM each time.
As to `Nc1nncc2c1c(Br)cn2C1OC(CO)C(O)C1O` (configuration not stated), the TGI in the assay on EKVX NSCLC, in the assay on RPMI-8226 leukemia, in the assay with 786-0 renal, in the assay with CCRF-CEM leukemia, in the assay with SK-MEL-5 melanoma and in the assay on NCI-H460 lung was greater than 100 µM in each case. Moreover, the TGI with IGROV1 ovarian was greater than 100 µM; in the assay on OVCAR-3 ovarian it was greater than 100 µM; with NCI-H23 lung, greater than 67.6 µM.
On to `CC(=O)C1CCN(c2ccccc2)C1` (configuration not stated), for which the TGI with EKVX NSCLC, in the assay with 786-0 renal, in the assay on CCRF-CEM leukemia, with SK-MEL-5 melanoma, in the assay on NCI-H460 lung and in the assay on IGROV1 ovarian was greater than 100 µM in each case. Moreover, the TGI in the assay with OVCAR-3 ovarian and in the assay with NCI-H23 lung was greater than 100 µM each time.
`COc1cc(C2c3cc4c(cc3[C@@H](NCCN(C)C)C3COC(=O)[C@H]23)OCO4)cc(OC)c1O` (some centres not stated): the GI50 with EKVX NSCLC was 1.56 µM and 3.29 µM; in the assay on 786-0 renal it was 0.0355 µM and 0.132 µM; with CCRF-CEM leukemia it was 0.0136 µM and 0.0277 µM; in the assay on IGROV1 ovarian it was 0.391 µM and 1.06 µM; in the assay on NCI-H23 lung, 0.103 µM and 0.228 µM. For the same molecule, the TGI in the assay on EKVX NSCLC is 5.08 µM and 11 µM; in the assay with RPMI-8226 leukemia, > 100 µM and 12 µM; in the assay with 786-0 renal, 0.457 µM and 1.1 µM; with CCRF-CEM leukemia, 0.417 µM and 0.352 µM; with SK-MEL-5 melanoma it was 1.09 µM and 1.55 µM; in the assay with NCI-H460 lung, 0.135 µM and 0.326 µM. Further, the TGI in the assay with IGROV1 ovarian was 2.39 µM and 3.57 µM; with OVCAR-3 ovarian, 2.81 µM and 3.31 µM; in the assay with NCI-H23 lung, 0.673 µM and 1.41 µM.
`O=C1c2ccccc2C(=O)c2cc3c(cc21)CS(=O)C3`: the TGI in the assay with EKVX NSCLC, in the assay on RPMI-8226 leukemia, with 786-0 renal, in the assay with CCRF-CEM leukemia, in the assay on SK-MEL-5 melanoma and with NCI-H460 lung was greater than 100 µM throughout. In addition, the TGI in the assay with IGROV1 ovarian, in the assay on OVCAR-3 ovarian and in the assay on NCI-H23 lung was greater than 100 µM throughout.
As for `CC(C)(C)c1cc(CCC(=O)Nc2ccc(Cl)cc2)[nH]c(=S)n1`, the TGI in the assay with EKVX NSCLC, in the assay on RPMI-8226 leukemia, in the assay with 786-0 renal, in the assay with CCRF-CEM leukemia, with SK-MEL-5 melanoma and with NCI-H460 lung was greater than 100 µM each time. The TGI with IGROV1 ovarian, in the assay with OVCAR-3 ovarian and with NCI-H23 lung was greater than 100 µM each time.
Turning to `CCCNC(=O)Nc1c([N+](=O)[O-])cc(C(F)(F)F)cc1[N+](=O)[O-]`, the TGI in the assay on EKVX NSCLC, with RPMI-8226 leukemia, with 786-0 renal, with CCRF-CEM leukemia, with SK-MEL-5 melanoma and with NCI-H460 lung was greater than 100 µM each time. For the same molecule, the TGI in the assay with IGROV1 ovarian is greater than 100 µM; with OVCAR-3 ovarian it was 61.2 µM; in the assay on NCI-H23 lung, greater than 100 µM.
As for `O=C(O/N=C1\CCCC\C1=C/c1ccccc1)c1ccc([N+](=O)[O-])cc1`, the TGI in the assay with EKVX NSCLC, in the assay on RPMI-8226 leukemia, in the assay on 786-0 renal, in the assay on CCRF-CEM leukemia, in the assay with NCI-H460 lung and in the assay with OVCAR-3 ovarian was greater than 100 µM throughout. Moreover, the TGI in the assay on NCI-H23 lung was greater than 100 µM.
For the molecule `COC1C2C[C@@H](O)CCC2C(C(=O)OCCl)C[C@H]1O` (some centres not stated), the TGI in the assay on RPMI-8226 leukemia, with 786-0 renal, in the assay on CCRF-CEM leukemia, with SK-MEL-5 melanoma, with NCI-H460 lung and with IGROV1 ovarian was greater than 100 µM each time. The same molecule displayed a TGI with OVCAR-3 ovarian greater than 100 µM.
As to `O=C1C(c2ccccc2)=C(c2ccccc2)C(c2ccc(Cc3ccc(C4=C(c5ccccc5)C(=O)C(c5ccccc5)=C4c4ccccc4)cc3)cc2)=C1c1ccccc1`, the TGI with EKVX NSCLC, with RPMI-8226 leukemia, in the assay on 786-0 renal, in the assay on CCRF-CEM leukemia, with SK-MEL-5 melanoma and in the assay with NCI-H460 lung was greater than 100 µM throughout. The TGI with IGROV1 ovarian, in the assay on OVCAR-3 ovarian and with NCI-H23 lung was greater than 100 µM throughout.
For the molecule `O=S1(=O)N2CN3CN(C2)CN1C3`, the TGI in the assay on EKVX NSCLC was 823 µM; in the assay on RPMI-8226 leukemia, 56.6 µM and 124 µM; in the assay on 786-0 renal, 179 µM; with CCRF-CEM leukemia, > 31.6 µM and 110 µM; in the assay with SK-MEL-5 melanoma it was 124 µM; in the assay with NCI-H460 lung it was 272 µM. Also, the TGI is 712 µM in the assay with IGROV1 ovarian and 44.3 µM with NCI-H23 lung. In addition, the GI50 with RPMI-8226 leukemia is 33.7 µM.
